Reference: patent US20210380606A1, “5-AZAINDAZOLE DERIVATIVES AS ADENOSINE RECEPTOR ANTAGONISTS” (Merck Patent GmbH, priority 2018, published 2021)
Where two headings read alike, the source gives them in different places.

Key:
human A2A receptors = target: T1, human A2A receptors (Homo sapiens, UniProt P29274); test: Functional human A2A receptor activity, recombinant HEK293 cells, cAMP (HTRF); format: cell-based; details: read-out: A2A (Category)
T1 construct: expressed in transfected cells; host or cells: HEK293
T1 sequence (P29274 whole entry): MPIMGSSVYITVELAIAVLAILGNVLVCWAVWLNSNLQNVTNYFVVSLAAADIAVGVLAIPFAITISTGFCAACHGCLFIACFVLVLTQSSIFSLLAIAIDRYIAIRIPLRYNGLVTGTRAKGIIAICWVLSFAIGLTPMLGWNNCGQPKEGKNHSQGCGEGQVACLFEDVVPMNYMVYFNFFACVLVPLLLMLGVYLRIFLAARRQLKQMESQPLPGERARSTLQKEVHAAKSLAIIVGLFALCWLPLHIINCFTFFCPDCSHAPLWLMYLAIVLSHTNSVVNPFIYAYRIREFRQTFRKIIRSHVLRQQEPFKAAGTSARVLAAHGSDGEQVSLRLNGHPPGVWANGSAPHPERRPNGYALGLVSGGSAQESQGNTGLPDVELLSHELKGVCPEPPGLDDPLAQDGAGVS
Description: (§1) The functional activities of human A2A and A2B receptors were determined by quantification of cAMP, being the second messenger for adenosine receptors.
(§2) After a 15 min incubation, HTRF reagents (cAMP dynamic 2, Cis Bio) were added and the cellular cAMP levels were determined using the ENVISION (Perkin Elmer) plate reader.

human A2B receptors = target: T2, human A2B receptors (Homo sapiens, UniProt P29275); test: Functional human A2B receptor activity, recombinant HEK293 cells, cAMP (HTRF); format: cell-based; details: read-out: A2B (Category)
T2 construct: expressed in transfected cells; host or cells: HEK293
T2 sequence (P29275 1-332): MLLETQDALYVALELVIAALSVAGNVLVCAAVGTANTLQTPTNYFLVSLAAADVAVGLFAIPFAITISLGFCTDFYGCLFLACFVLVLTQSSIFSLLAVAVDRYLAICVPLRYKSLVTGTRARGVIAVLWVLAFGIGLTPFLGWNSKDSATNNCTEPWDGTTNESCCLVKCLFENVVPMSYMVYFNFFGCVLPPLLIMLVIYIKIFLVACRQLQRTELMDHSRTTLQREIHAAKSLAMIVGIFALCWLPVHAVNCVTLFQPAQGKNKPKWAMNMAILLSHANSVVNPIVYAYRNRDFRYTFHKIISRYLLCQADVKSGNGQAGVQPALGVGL
Description: as §1, §2

| IC50 (human A2A receptors) | IC50 (human A2B receptors) | Compound | IC50 (human A2A receptors; recombinant HEK293 cells expressing human A2A receptor, agonist NECA, cAMP HTRF, 15 min incubation) | IC50 (human A2B receptors; recombinant HEK293 cells expressing human A2B receptor, agonist NECA, cAMP HTRF, 15 min incubation) |
| --- | --- | --- | --- | --- |
|  |  | CC1(O)C2CCC1CN(C(=O)c1cc3c(cn1)c(-c1coc4ccccc14)nn3CS(C)(=O)=O)C2 (stereo not drawn) [Compound 28, (3-Benzofuran-3-yl-1-methanesulfonylmethyl-1H-pyrazolo[4,3-c]pyridin-6-yl)-(8-endo-hydroxy-8-exo-methyl-d3-3-aza-bicyclo[3.2.1]oct-3-yl)-methanone] | < 100 nM | < 100 nM |
| < 100 nM | < 1000 nM | CS(=O)(=O)Cn1nc(-c2coc3ccccc23)c2cnc(C(=O)N3CCOCC(F)(F)C3)cc21 [Compound 29, (3-Benzofuran-3-yl-1-methanesulfonylmethyl-1H-pyrazolo[4,3-c]pyridin-6-yl)-(6,6-difluoro-1,4-oxazepan-4-yl)-methanone] |  |  |
| < 100 nM | < 100 nM | CS(=O)(=O)Cn1nc(-c2coc3ccccc23)c2cnc(C(=O)N3CC4CCC(C3)C4O)cc21 (stereo not drawn) [Compound 30, (3-Benzofuran-3-yl-1-methanesulfonylmethyl-1H-pyrazolo[4,3-c]pyridin-6-yl)-(8-endo-hydroxy-3-aza-bicyclo[3.2.1]oct-3-yl)-methanone] |  |  |
| < 100 nM | < 1000 nM | CC1(O)CCN(C(=O)c2cc3c(cn2)c(-c2coc4ccccc24)nn3CS(C)(=O)=O)CC1 [Compound 32, (3-Benzofuran-3-yl-1-methanesulfonylmethyl-1H-pyrazolo[4,3-c]pyridin-6-yl)-(4-hydroxy-4-methyl-piperidin-1-yl)-methanone] |  |  |
| < 100 nM | < 1000 nM | CS(=O)(=O)Cn1nc(-c2coc3ccccc23)c2cnc(C(=O)N3CCC(F)(F)CC3)cc21 [Compound 33, (3-Benzofuran-3-yl-1-methanesulfonylmethyl-1H-pyrazolo[4,3-c]pyridin-6-yl)-(4,4-difluoro-piperidin-1-yl)-methanone] |  |  |
| < 100 nM | < 1000 nM | COCC1CCCN1C(=O)c1cc2c(cn1)c(-c1coc3ccccc13)nn2CS(C)(=O)=O (stereo not drawn) [Compound 34, (3-Benzofuran-3-yl-1-methanesulfonylmethyl-1H-pyrazolo[4,3-c]pyridin-6-yl)-(2-methoxymethyl-pyrrolidin-1-yl)-methanone] |  |  |
| < 100 nM | < 1000 nM | CC1(C)CC(O)CCN1C(=O)c1cc2c(cn1)c(-c1coc3ccccc13)nn2CS(C)(=O)=O (stereo not drawn) [Compound 35, (3-Benzofuran-3-yl-1-methanesulfonylmethyl-1H-pyrazolo[4,3-c]pyridin-6-yl)-(4-hydroxy-2,2 dimethyl-piperidin-1-yl)-methanone] |  |  |
| < 100 nM | < 100 nM | CS(=O)(=O)Cn1nc(-c2coc3ccccc23)c2cnc(C(=O)N3CCC(O)CC3)cc21 [Compound 36, (3-Benzofuran-3-yl-1-methanesulfonylmethyl-1H-pyrazolo[4,3-c]pyridin-6-yl)-(4-hydroxy-piperidin-1-yl)-methanone] |  |  |
| < 100 nM | < 1000 nM | CS(=O)(=O)Cn1nc(-c2coc3ccccc23)c2cnc(C(=O)N3CCCC(O)C3)cc21 (stereo not drawn) [Compound 38, (3-Benzofuran-3-yl-1-methanesulfonylmethyl-1H-pyrazolo[4,3-c]pyridin-6-yl)-(3-hydroxy-piperidin-1-yl)-methanone] |  |  |
| < 100 nM | < 100 nM | CS(=O)(=O)Cn1nc(-c2coc3ccccc23)c2cnc(C(=O)N3CCCC(F)(F)C3)cc21 [Compound 39, (3-Benzofuran-3-yl-1-methanesulfonylmethyl-1H-pyrazolo[4,3-c]pyridin-6-yl)-(3,3-difluoro-piperidin-1-yl)-methanone] |  |  |
| < 100 nM | < 100 nM | CS(=O)(=O)Cn1nc(-c2coc3ccccc23)c2cnc(C(=O)N3CCCC(O)CC3)cc21 (stereo not drawn) [Compound 40, (3-Benzofuran-3-yl-1-methanesulfonylmethyl-1H-pyrazolo[4,3-c]pyridin-6-yl)-(4-hydroxyazepan-1-yl)-methanone] |  |  |
| < 100 nM | < 1000 nM | Cn1nc(-c2cnc3ccc(F)cn23)c2cnc(C(=O)N3CCCCCC3)cc21 [Compound 41, Azepan-1-yl-[3-(6-fluoro-imidazo[1,2-a]pyridin-3-yl)-1-methyl-1H-pyrazolo[4,3-c]pyridin-6-yl]-methanone] |  |  |
| < 100 nM | < 100 nM | O=C(c1cc2c(cn1)c(-c1cnc3ccc(F)cn13)nn2CC(F)(F)F)N1CCCCCC1 [Compound 44, Azepan-1-yl-[3-(6-fluoro-imidazo[1,2-a]pyridin-3-yl)-1-(2,2,2-trifluoro-ethyl)-1H-pyrazolo[4,3-c]pyridin-6-yl]-methanone] |  |  |
| < 100 nM | < 100 nM | NC(=O)c1ccc2ncc(-c3nn(CC(F)(F)F)c4cc(C(=O)N5CCCCCC5)ncc34)n2c1 [Compound 46, 3-[6-(Azepane-1-carbonyl)-1-(2,2,2-trifluoro-ethyl)-1H-pyrazolo[4,3-c]-pyridin-3-yl]-imidazo[1,2-a]pyridine-6-carboxylic acid amide] |  |  |
| < 100 nM | < 1000 nM | O=C(c1cc2c(cn1)c(-c1cnc3ccc(Cl)cn13)nn2CC(F)(F)F)N1CCCCCC1 [Compound 48, Azepan-1-yl-[3-(6-chloro-imidazo[1,2-a]pyridin-3-yl)-1-(2,2,2-trifluoro-ethyl)-1H-pyrazolo[4,3-c]pyridin-6-yl]-methanone] |  |  |
| < 100 nM | < 1000 nM | O=C(c1cc2c(cn1)c(-c1cnc3ncc(F)cn13)nn2CC(F)(F)F)N1CCCCCC1 [Compound 50, Azepan-1-yl-[3-(6-fluoro-imidazo[1,2-a]pyrimidin-3-yl)-1-(2,2,2-trifluoro-ethyl)-1H-pyrazolo[4,3-c]pyridin-6-yl]-methanone] |  |  |
| < 100 nM | < 1000 nM | O=C(c1cc2c(cn1)c(-c1ccc3ccccn13)nn2CC(F)(F)F)N1CCCCCC1 [Compound 52, Azepan-1-yl-[3-indolizin-3-yl-1-(2,2,2-trifluoro-ethyl)-1H-pyrazolo[4,3-c]pyridin-6-yl]-methanone] |  |  |
| < 100 nM | < 1000 nM | O=C(c1cc2c(cn1)c(-c1cnc3ccccn13)nn2CC(F)(F)F)N1CCCCCC1 [Compound 55, Azepan-1-yl-[3-imidazo[1,2-a]pyridin-3-yl-1-(2,2,2-trifluoro-ethyl)-1H-pyrazolo[4,3-c]pyridin-6-yl]-methanone] |  |  |
| < 100 nM | < 1000 nM | O=C(c1cc2c(cn1)c(-c1cnc3cnccn13)nn2CC(F)(F)F)N1CCCCCC1 [Compound 56, Azepan-1-yl-[3-imidazo[1,2-a]pyrazin-3-yl-1-(2,2,2-trifluoro-ethyl)-1H-pyrazolo[4,3-c]pyridin-6-yl]-methanone] |  |  |
| < 100 nM | < 1000 nM | COc1ccc2ncc(-c3nn(CC(F)(F)F)c4cc(C(=O)N5CCCCCC5)ncc34)n2c1 [Compound 59, Azepan-1-yl-[3-(6-methoxy-imidazo[1,2-a]pyridin-3-yl)-1-(2,2,2-trifluoro-ethyl)-1H-pyrazolo[4,3-c]pyridin-6-yl]-methanone] |  |  |
| < 100 nM | < 100 nM | O=C(c1cc2c(cn1)c(-c1cnc3c(F)cc(F)cn13)nn2CC(F)(F)F)N1CCCCCC1 [Compound 60, Azepan-1-yl-[3-(6,8-difluoro-imidazo[1,2-a]pyridin-3-yl)-1-(2,2,2-trifluoro-ethyl)-1H-pyrazolo[4,3-c]pyridin-6-yl]-methanone] |  |  |
| < 100 nM | < 1000 nM | Cc1ccc2ncc(-c3nn(CC(F)(F)F)c4cc(C(=O)N5CCCCCC5)ncc34)n2c1 [Compound 61, Azepan-1-yl-[3-(6-methyl-imidazo[1,2-a]pyridin-3-yl)-1-(2,2,2-trifluoro-ethyl)-1H-pyrazolo[4,3-c]pyridin-6-yl]-methanone] |  |  |
| < 100 nM | < 100 nM | O=C(c1cc2c(cn1)c(-c1cnc3c(F)cccn13)nn2CC(F)(F)F)N1CCCCCC1 [Compound 62, Azepan-1-yl-[3-(8-fluoro-imidazo[1,2-a]pyridin-3-yl)-1-(2,2,2-trifluoro-ethyl)-1H-pyrazolo[4,3-c]pyridin-6-yl]-methanone] |  |  |
| < 100 nM | < 1000 nM | O=C(c1cc2c(cn1)c(-c1cnc3ccc(O)cn13)nn2CC(F)(F)F)N1CCCCCC1 [Compound 68, Azepan-1-yl-[3-(6-hydroxy-imidazo[1,2-a]pyridin-3-yl)-1-(2,2,2-trifluoro-ethyl)-1H-pyrazolo[4,3-c]pyridin-6-yl]-methanone] |  |  |
| < 100 nM | < 1000 nM | O=C(c1cc2c(cn1)c(-c1nnc3ccccn13)nn2CC(F)(F)F)N1CCCCCC1 [Compound 71, Azepan-1-yl-[3-[1,2,4]triazolo[4,3-a]pyridin-3-yl-1-(2,2,2-trifluoro-ethyl)-1H-pyrazolo[4,3-c]pyridin-6-yl]-methanone] |  |  |
| < 100 nM | < 100 nM | O=C(c1cc2c(cn1)c(-c1cnc3cc(Cl)c(F)cn13)nn2CC(F)(F)F)N1CCCCCC1 [Compound 73, Azepan-1-yl-[3-(7-chloro-6-fluoro-imidazo[1,2-a]pyridin-3-yl)-1-(2,2,2-trifluoro-ethyl)-1H-pyrazolo[4,3-c]pyridin-6-yl]-methanone] |  |  |

| Compound | IC50 (human A2A receptors) | IC50 (human A2B receptors) | IC50 (human A2A receptors; recombinant HEK293 cells expressing human A2A receptor, agonist NECA, cAMP HTRF, 15 min incubation) | IC50 (human A2B receptors; recombinant HEK293 cells expressing human A2B receptor, agonist NECA, cAMP HTRF, 15 min incubation) |
| --- | --- | --- | --- | --- |
| CS(=O)(=O)Cn1nc(-c2coc3ccccc23)c2cnc(C(=O)N3[C@@H]4CC[C@H]3C[C@@H](O)C4)cc21 [Compound 37, [3-(benzofuran-3-yl)-1-(methylsulfonylmethyl)pyrazolo[4,3-c]pyridin-6-yl]-(3-endo-hydroxy-8-azabicyclo[3.2.1]octan-8-yl)methanone] | < 100 nM | < 100 nM |  |  |
